Laboratory results from patent publication US20080039434A1, “Treatment of Interstitial Cystitis with Vitamin D Compounds” (BioXell S. p.A., priority 2004, published 2008).
Values joined by “and” are separate entries in the source; they are usually repeats but may differ in a detail not shown here. Equal entries are not always repeated.

Legend:
[1] = Calcemia assessment in CYP rats (colorimetric serum calcium assay); type: in vivo, rat; settings: both dosage levels (30 and 75 ug/kg); limit of normal range 10.7 mg/dl in rats
Method: Serum calcemia was evaluated by a commercially available calorimetric assay (Calcium Dry-Fast, Sentinel CH. Italy). Briefly, 10 ul serum were added to 100 ul reaction solution prepared according to the manufacturer's procedure in a 96-wells plate. After 5 min incubation at RT samples were read at 570 nm with a spectrophotometer and the calcium levels were calculated in triplicate by using a standard reference as directed.

[2] = tested on: rat bladders (CYP-induced cystitis); assay: Histological analysis of rat bladders from the CYP cystitis experiment; type: in vivo
Method: Rat bladders from the experiments of Example 1 were fixed in formalin, embedded in paraffin and stained with hematoxylin and eosin by methods known in the art.
Histopathological examination was performed on at least 10 sections per bladder. Different inflammatory parameters were considered:
infiltration of inflammatory cells (mostly lymphocytes and monocytes)
and were scored as follows: 0=normal without any sign of inflammation, 1=mild, 2=moderate, 3=severe, 4=severe signs diffused across all of the section.
Table 3 refers to vehicle treated animals and Table 4 to “Compound A” treated animals. Each inflammatory parameter was scored from 0 to 4, where 0 is normal and 4 the most severe symptom.

[3] = tested on: rats with CYP-induced cystitis; assay: Cystometry in conscious rats with cyclophosphamide (CYP) induced chronic IC, Compound A; type: in vivo, rat; parameters: Bl. Cap. / FP / TP / MP / amplitude of NVBC: unit not given here; settings: Compound A oral 0.1 μg/kg daily for 14 days
From the text: The rat model of chemical cystitis induced by intraperitoneal injection of CYP has been Well accepted. CYP is used in clinical practice in the treatment of a number of malignant tumors. One of its metabolites, acrolein, is excreted in urine in large concentrations causing hemorrhagic cystitis associated with symptoms of urinary frequency, urgency and pelvic pain. The inflammatory process is characterized by changes in gross histology of bladder, increase in number and distribution of inflammatory cell infiltrates (mast cells, macrophage, PMNs), cyclo-oxygenase-2 expression and prostaglandin production, growth factor and cytokine production. The rat model of chemical cystitis closely resembles interstitial cystitis, a chronic, painful urinary bladder syndrome and has been used for the testing of therapeutic agents in the past.
This model was used to test the effects of oral administration of 1,25-dihydroxyvitamin D3 analogue in rats with CYP-induced cystitis. The effects of the treatment on the cystometric parameters in a conscious freely moving rat with CYP-induced cystitis were monitored. The following cystometric parameters were recorded in each animal: • bladder capacity • filling pressure (pressure at the beginning of the bladder filling) • threshold pressure (bladder pressure immediately prior to micturition) • micturition pressure (the maximal bladder pressure during micturition) • presence or absence of non-voiding bladder contractions (increases in bladder pressure of at least 10 cm H2O without release of urine) • amplitude of non-voiding bladder contraction.
Animals: Wistar female rats, age 8 weeks, weighing 125-175 g were used. […] Following recovery all animals received three intraperitoneal injections of CYP and subsequently were divided into the treatment and sham control groups.
Treatment group: Rats treated with oral 1,25-dihydroxyvitamin D3 analog (1,3-Di-O-acetyl-1,25-dihydroxy-16,23Z-diene-26,27-hexafluoro-19-nor-cholecalciferol) “Compound A” for 14 days (daily dose of 0.1 μg/kg)
Cystometry was performed 24 hours following the last dose of the drug or vehicle on awake freely moving animals.
A lower midline abdominal incision was performed under general inhalation anesthesia (isoflurine with O2) and polyethylene tubing (PE-50, Clay Adams, Parsippany, N.J.) with the end flared by heat was inserted into the dome of the bladder and secured in place with a 6-0 prolene purse string suture. The distal end of the tubing was heat-sealed, tunneled subcutaneously and externalized at the back of the neck, out of the animal's reach. Abdominal and neck incisions were closed with 4-0 nylon sutures.
Following recovery (5 days) subject animals underwent three intraperitoneal injections of CYP (Sigma Chemical, St. Luis, Mo.; 75 mg/kg each, intraperitoneal) over the period of nine days. On the tenth day following the first CYP injection the sham control animals received the vehicle only, whereas the experimental group were treated with the 1,25-dihydroxyvitamin D3 analogue 1,3-Di-O-acetyl-1,25-dihydroxy-16,23Z-diene-26,27-hexafluoro-19-nor-cholecalciferol “Compound A” (delivered orally using gavage). Two weeks following the initiation of the treatment animals underwent a conscious cystometrogram to assess the function of the urinary bladder.
An animal was placed unrestrained in a cage and the catheter was connected via a T-tube to a pressure transducer (Grass® Model PT300, West Warwick, R.I.) and microinjection pump (Harvard Apparatus 22, South Natick, Mass.). A 0.9% saline solution was infused at room temperature into the bladder at a rate of 10 ml/hour. […]. At least three reproducible micturition cycles were recorded after the initial stabilization period of 25-30 minutes.

[4] = individual rats, score 0 (normal) to 4 (most severe), Compound A 0.1 μg/kg oral 14 days
[5] = mean of 4 Compound A treated rats, score 0-4

Structure (SMILES): C=C1/C(=C\C=C2/CCC[C@]3(C)C([C@@H](C)C/C=C/C(O)(CC)CC)=CC[C@@H]23)C[C@@H](O)C[C@@H]1F [Compound B, 1-alpha-fluoro-25-hydroxy-16,23E-diene-26,27-bishomo-20-epi-cholecalciferol]
- average serum calcium levels [1]: only slightly but not significantly elevated

Structure (SMILES): CC(=O)OC1C/C(=C/C=C2\CCC[C@]3(C)C(C(C)C/C=C\C(O)(C(F)(F)F)C(F)(F)F)=CCC23)C[C@@H](OC(C)=O)C1 (some centres unmarked) [Compound A, 1,3-Di-O-acetyl-1,25-dihydroxy-16,23Z-diene-26,27-hexafluoro-19-nor-cholecalciferol]
- EPITHELIAL EROSION histological score [2, 4]: 0
- FIBROSIS histological score [2, 4]: 0
- HEMOSTASIS histological score [2, 4]: 0 and 1 and 0.5 (2×)
- INFILTRATION histological score [2, 4]: 0.5 (2×) and 1 and 2
- EDEMA histological score ([2]; individual rats, score 0 normal, 1 mild, 2 moderate, 3 severe, 4 severe diffused, Compound A 0.1 μg/kg oral 14 days): 0.5 and 0 (2×) and 2
- EDEMA histological score, MEAN [2, 5]: 0.63
- EPITHELIAL EROSION histological score, MEAN [2, 5]: 0
- FIBROSIS histological score, MEAN [2, 5]: 0
- HEMOSTASIS histological score, MEAN [2, 5]: 0.5
- INFILTRATION histological score, MEAN [2, 5]: 1
- Bl. Cap. ([3]; CYP cystitis, individual rats RB7, RB13, RB15, three micturition cycles each): 1.9 and 1.3 (2×) and 2.5 and 1.5 and 0.7 (2×) and 0.8 and 1.4
- amplitude of NVBC ([3]; individual rats, three micturition cycles each): 10 and 11 (2×) and 0 (6×)
- FP ([3]; filling pressure, individual rats, three micturition cycles each): 15 and 14 (3×) and 12 and 11 and 10 and 13 (2×)
- MP ([3]; micturition pressure, individual rats, three micturition cycles each): 105 and 97 (2×) and 90 and 100 and 108 and 98 and 101 and 104
- # of NVBC ([3]; non-voiding bladder contractions, individual rats, three micturition cycles each): 4 and 8 (2×) and 0 (6×)
- TP ([3]; threshold pressure, individual rats, three micturition cycles each): 16 and 17 and 14 (4×) and 12 and 11 and 15
